Laboratory results published in a compilation of properties of binary mixtures (doi:10.1016/j.molliq.2020.112644).

Assay: xn = mol fraction of the nth substance listed
Details: 100 kPa, x2 = 0.571

O=C1c2ccccc2C(=O)C1(O)O + CCCC[N+](CCCC)(CCCC)CCCC.O=S(=O)([O-])O
Details	electrical conductivity [S/m]	speed of sound [m/s]	viscosity [mPa·s]
293.15 K	–	2074.6	–
298.15 K	–	2026.2	–
303.15 K	–	1974.8	–
308.15 K	0.0001	1920.7	–
313.15 K	0.0002	1859	–
318.15 K	0.0003	1802.5	–
323.15 K	0.0006	1740.4	48000
333.15 K	0.0018	1629.2	15800
338.15 K	–	–	11000
